Test results published in patent US9618509B2 (priority 2007, dated 2017).

Key:
[1] = test system: PBMC isolated from M. bovis-infected cattle; assay type: cell-based
[2] = test system: PBMC isolated from M. bovis-infected cattle; assay type: cell-based; remark: listed apart in the source
M. bovis infected cattle = conditions: Mustafa et al., 2006, cited from earlier work

| Substance | recognition / response in ELISPOT (cattle responding of the three tested) [1] | intracellular IFN-γ production [2] | other results |
| --- | --- | --- | --- |
| AKIYSEADEA WRKAIDGLFT (AKIYSEADEAWRKAIDGLFT; fragment of full length protein) [SEQ ID NO: 13] | all three | Markedly higher levels of IFN-γ | average spot-forming units (SFU) [1]: 509 SFU per 10^6 PBMC |
| GVDLAKSLRI AAKIYSEADE (GVDLAKSLRIAAKIYSEADE; fragment of full length protein) [SEQ ID NO: 11] | a response was recorded | no IFN-γ response | dead cells in the sample [2]: > 64% |
| LGSSLHTAGV DLAKSLRIAA (LGSSLHTAGVDLAKSLRIAA; fragment of full length protein) [SEQ ID NO: 10] |  | Markedly higher levels of IFN-γ |  |
| RIAAKIYSEA DEAWRKAIDG (RIAAKIYSEADEAWRKAIDG; fragment of full length protein) [SEQ ID NO: 12] |  | Markedly higher levels of IFN-γ |  |
| Rv3616c: product of the first gene of the Rv3616c-Rv3612c operon, a dominant mycobacterial antigen (Mustafa et al., 2006) |  |  | vaccinated individuals that respond (M. bovis infected cattle; BCG vaccinated): 40%; frequency of recognition in M. bovis infected cattle (M. bovis infected cattle): 84.6% |
| VYLTAHNALG SSLHTAGVDL (VYLTAHNALGSSLHTAGVDL; fragment of full length protein) [SEQ ID NO: 9] |  | Markedly higher levels of IFN-γ |  |
